Measurements reported in ChEMBL document CHEMBL2384956, “Discovery of tetrahydropyrazolopyrimidine carboxamide derivatives as potent and orally active antitubercular agents” (ACS Med Chem Lett, 2013).
≈ marks a conversion by molar mass, not a printed value. Calls of active or inactive are those of the source. The rule behind the calls is not given here.

Assays:
[1] = tested on: Mycobacterium tuberculosis; test: Antitubercular activity against Mycobacterium tuberculosis infected in BALB/c mouse assessed as reduction in log10CFU at 100 mg/kg, po qd administered 7 days post-infection for 28 days relative to control; type: functional
[2] = Ratio of Cmax in mouse lung to Cmax in mouse plasma at 25 mg/kg, po; type: ADME, organism-based; design: dose 25 mg/kg, route oral
[3] = Oral bioavailability in mouse at 25 mg/kg; type: ADME, organism-based; settings: in vivo
[4] = Ratio of AUC in mouse lung to AUC in mouse plasma at 25 mg/kg, po; type: ADME, organism-based; design: dose 25 mg/kg, route oral; settings: read-out: Ratio AUC
[5] = Cmax in mouse at 25 mg/kg, po; type: ADME, organism-based; design: dose 25 mg/kg, route oral; settings: in vivo
[6] = Cmax in mouse at 200 mg/kg, po; type: ADME, organism-based; design: dose 200 mg/kg, route oral; settings: in vivo
[7] = AUC in mouse at 200 mg/kg, po; type: ADME, organism-based; design: dose 200 mg/kg, route oral; settings: plasma
[8] = Elimination half life in mouse at 5 mg/kg, iv; type: ADME, organism-based; design: dose 5 mg/kg, route intravenous; settings: in vivo, read-out: beta t1/2 (converted)
[9] = AUC in mouse at 25 mg/kg, po; type: ADME, organism-based; design: dose 25 mg/kg, route oral; settings: plasma
[10] = Clearance in mouse at 5 mg/kg, iv; type: ADME, organism-based; design: dose 5 mg/kg, route intravenous; settings: in vivo
[11] = Volume of distribution at steady state in mouse at 5 mg/kg, iv; type: ADME, organism-based; design: dose 5 mg/kg, route intravenous; settings: in vivo, read-out: Vdss
[12] = Clearance in mouse liver microsomes; type: ADME, Microsome; settings: read-out: CLH
[13] = molecular target: T1, Nuclear receptor subfamily 1 group I member 2 (Homo sapiens, UniProt O75469); test: Induction of PXR-mediated CYP3A4 expression in human DPX2 cells after 24 hrs by luciferase reporter gene assay; type: cell-based; settings: dpx2, 24 h
T1 sequence (O75469 whole entry): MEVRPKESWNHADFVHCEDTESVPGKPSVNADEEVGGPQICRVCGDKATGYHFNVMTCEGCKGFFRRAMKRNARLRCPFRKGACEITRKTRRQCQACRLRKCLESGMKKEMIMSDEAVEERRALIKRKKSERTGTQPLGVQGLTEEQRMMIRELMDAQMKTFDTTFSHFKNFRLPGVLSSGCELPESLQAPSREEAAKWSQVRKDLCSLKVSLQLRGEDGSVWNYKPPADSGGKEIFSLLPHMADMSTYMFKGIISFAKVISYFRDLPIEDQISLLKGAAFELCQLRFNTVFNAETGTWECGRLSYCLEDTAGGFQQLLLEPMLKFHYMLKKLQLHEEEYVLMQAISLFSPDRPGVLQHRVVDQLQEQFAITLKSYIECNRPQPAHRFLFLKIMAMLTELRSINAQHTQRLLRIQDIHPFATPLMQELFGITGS

Cytochrome P450 2C9 = Cytochrome P450 2C9 (Homo sapiens, UniProt P11712); test: Inhibition of CYP2C9 in human liver microsomes using diclofenac as substrate by LC-MS/MS analysis; type: ADME, Microsome
Cytochrome P450 2D6 = Cytochrome P450 2D6 (Homo sapiens, UniProt P10635); test: Inhibition of CYP2D6 in human liver microsomes using bufuralol as substrate by LC-MS/MS analysis; type: ADME, Microsome
Cytochrome P450 3A4 = Cytochrome P450 3A4 (Homo sapiens, UniProt P08684); test: Inhibition of CYP3A4 in human liver microsomes using midazolam as substrate by LC-MS/MS analysis; type: ADME, Microsome
Cytochrome P450 3A5 = Cytochrome P450 3A5 (Homo sapiens, UniProt P20815); test: Inhibition of CYP3A5 in human liver microsomes using midazolam as substrate by LC-MS/MS analysis; type: ADME, Microsome
[14] = Plasma protein binding in human; type: ADME, cell-free; settings: read-out: PPB (converted)
[15] = Plasma protein binding in mouse; type: ADME, cell-free; settings: read-out: PPB (converted)
[16] = Aqueous solubility of the compound at pH 6.8; type: physicochemical
[17] = Octanol-water partition coefficient, log P of the compound; type: physicochemical
[18] = tested on: Mycobacterium tuberculosis; test: Antitubercular activity against Mycobacterium tuberculosis H37Rv ATCC 27294 […]; type: functional
[19] = Cmax in mouse; type: ADME, organism-based; settings: in vivo
[20] = AUC in mouse; type: ADME, organism-based; settings: plasma
[21] = tested on: Mycobacterium tuberculosis; test: Bactericidal activity against Mycobacterium tuberculosis H37Rv ATCC 27294 infected in activated human THP1 cells; type: functional, organism-based; settings: THP-1

Chain of Cytochrome P450 3A5 (P20815 whole entry): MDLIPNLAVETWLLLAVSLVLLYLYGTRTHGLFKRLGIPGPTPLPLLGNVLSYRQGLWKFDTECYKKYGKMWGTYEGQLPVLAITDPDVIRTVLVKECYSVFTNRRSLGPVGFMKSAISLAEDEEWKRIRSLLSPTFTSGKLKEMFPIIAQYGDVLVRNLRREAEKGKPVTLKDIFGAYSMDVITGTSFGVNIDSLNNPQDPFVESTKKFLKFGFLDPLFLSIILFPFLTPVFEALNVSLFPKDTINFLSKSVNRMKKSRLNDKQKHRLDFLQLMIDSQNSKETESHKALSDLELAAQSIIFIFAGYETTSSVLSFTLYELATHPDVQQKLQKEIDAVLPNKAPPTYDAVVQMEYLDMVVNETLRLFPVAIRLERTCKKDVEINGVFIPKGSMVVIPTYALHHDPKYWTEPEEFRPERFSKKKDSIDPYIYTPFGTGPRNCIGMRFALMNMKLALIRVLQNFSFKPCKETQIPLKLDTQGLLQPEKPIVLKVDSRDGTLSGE
Chain of Cytochrome P450 3A4 (P08684 whole entry): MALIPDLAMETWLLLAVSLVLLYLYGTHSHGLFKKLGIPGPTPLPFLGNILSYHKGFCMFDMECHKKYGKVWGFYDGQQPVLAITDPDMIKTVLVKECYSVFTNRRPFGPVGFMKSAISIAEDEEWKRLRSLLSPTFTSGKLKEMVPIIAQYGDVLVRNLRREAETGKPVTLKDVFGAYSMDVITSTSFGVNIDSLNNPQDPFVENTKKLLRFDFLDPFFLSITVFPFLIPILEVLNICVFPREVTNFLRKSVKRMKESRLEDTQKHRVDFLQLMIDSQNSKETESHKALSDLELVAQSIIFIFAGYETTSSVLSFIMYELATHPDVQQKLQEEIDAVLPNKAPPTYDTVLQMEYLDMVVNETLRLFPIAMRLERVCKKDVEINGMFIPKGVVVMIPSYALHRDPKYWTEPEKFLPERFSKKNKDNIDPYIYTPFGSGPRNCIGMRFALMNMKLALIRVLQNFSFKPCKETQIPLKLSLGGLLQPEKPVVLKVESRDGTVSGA
Chain of Cytochrome P450 2D6 (P10635 whole entry): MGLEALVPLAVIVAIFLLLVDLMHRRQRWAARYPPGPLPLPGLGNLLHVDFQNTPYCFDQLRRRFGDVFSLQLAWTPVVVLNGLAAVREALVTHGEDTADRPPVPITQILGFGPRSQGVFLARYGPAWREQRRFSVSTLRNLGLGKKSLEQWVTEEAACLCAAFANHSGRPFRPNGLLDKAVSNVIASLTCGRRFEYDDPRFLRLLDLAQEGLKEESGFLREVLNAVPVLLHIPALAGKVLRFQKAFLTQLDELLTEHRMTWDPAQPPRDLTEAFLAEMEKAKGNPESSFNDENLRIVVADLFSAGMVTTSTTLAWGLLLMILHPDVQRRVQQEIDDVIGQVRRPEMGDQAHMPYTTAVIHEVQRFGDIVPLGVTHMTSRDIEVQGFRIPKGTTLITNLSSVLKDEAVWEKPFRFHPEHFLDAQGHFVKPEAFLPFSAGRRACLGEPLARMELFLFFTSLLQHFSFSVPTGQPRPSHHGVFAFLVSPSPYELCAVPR
Chain of Cytochrome P450 2C9 (P11712 whole entry): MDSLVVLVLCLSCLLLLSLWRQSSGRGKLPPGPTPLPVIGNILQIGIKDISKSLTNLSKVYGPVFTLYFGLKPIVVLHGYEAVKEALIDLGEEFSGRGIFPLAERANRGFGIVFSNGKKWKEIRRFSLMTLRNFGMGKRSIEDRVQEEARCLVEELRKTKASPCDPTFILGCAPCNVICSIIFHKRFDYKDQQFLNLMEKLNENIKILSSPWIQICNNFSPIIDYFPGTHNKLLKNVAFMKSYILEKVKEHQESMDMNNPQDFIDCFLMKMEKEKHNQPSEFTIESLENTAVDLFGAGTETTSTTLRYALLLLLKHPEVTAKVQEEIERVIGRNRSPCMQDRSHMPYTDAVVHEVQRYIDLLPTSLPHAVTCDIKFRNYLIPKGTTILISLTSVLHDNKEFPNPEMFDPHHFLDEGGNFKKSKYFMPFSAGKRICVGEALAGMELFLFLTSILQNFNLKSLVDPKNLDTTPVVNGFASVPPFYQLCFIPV

Row | SMILES | Activity [1] | Kp [2] | bioavailability [3] [%] | Kp [4] | Cmax [5] [µM] | half-life [8] [h] | AUC [9] [µM·h] | clearance [10] [mL/min/kg] | Vd [11] [L/kg] | microsomal CLint [12] [µL/min/mg] | Activity [13] | inhibition (INH) (Cytochrome P450 2C9) | inhibition (INH) (Cytochrome P450 2D6) | inhibition (INH) (Cytochrome P450 3A4) | inhibition (INH) (Cytochrome P450 3A5) | fraction unbound [14] | fraction unbound [15] | solubility [16] [µM] | logP [17] | MIC [18] [µM] | other results
1 | O=C(NCc1ccc(F)cc1)c1cnn2c1N[C@@H](c1ccc(OC3COC3)cc1)C[C@H]2C(F)(F)F | inactive | 2.7 | 52 | 2.2 | 3.7 | 4.1 | 41.7 | 9.9 | 2.5 | 8.92 | Not Active | Not Active | Not Active | Not Active | Not Active | 0.027 | 0.024 | 9 (≈ 4.41 µg/mL) | 5.1 | 0.73 (≈ 0.358 µg/mL) | Cmax [6]: 7.3 µM; AUC [7]: 71.3 µM·h
2 | Cc1ccc([C@H]2C[C@@H](C(F)(F)F)n3ncc(C(=O)NCc4ccc(F)cn4)c3N2)cc1 | – | – | – | – | – | – | – | – | – | – | – | – | – | – | – | 0.01 | < 0.01 | < 4 | 4.9 | 0.83 (≈ 0.36 µg/mL) | –
3 | COCCOc1ccc([C@H]2C[C@@H](C(F)(F)F)n3ncc(C(=O)NCc4ccc(F)cn4)c3N2)cc1 | – | – | – | – | – | – | – | – | – | – | – | – | – | – | – | 0.122 | 0.108 | 20 (≈ 9.87 µg/mL) | 3.2 | 3.7 (≈ 1.83 µg/mL) | –
4 | COCCOc1ccc([C@H]2C[C@@H](C(F)(F)F)n3ncc(C(=O)NCc4ccc(F)cc4)c3N2)cc1 | – | – | – | – | – | – | – | – | – | – | – | – | – | – | – | 0.019 | 0.015 | 6 (≈ 2.95 µg/mL) | 4.1 | 0.44 (≈ 0.217 µg/mL) | –
5 | O=C(NCc1ccc(F)cc1)c1cnn2c1N[C@@H](c1ccc(N3CCOCC3)cc1)C[C@H]2C(F)(F)F | – | – | – | – | – | – | – | – | – | – | – | – | – | – | – | 0.018 | 0.016 | < 4 | 4.8 | 0.87 (≈ 0.438 µg/mL) | –
6 | Cc1ccc([C@H]2C[C@@H](C(F)(F)F)n3ncc(C(=O)NCc4ccc(F)cc4)c3N2)cc1 | – | 3.2 | 65 | 4.5 | 3.6 | 4.2 | 18.9 | 31 | 6.3 | 43.5 | Not Active | Not Active | Not Active | Not Active | Not Active | < 0.01 | < 0.01 | < 4 | 6.3 | 0.15 (≈ 0.0649 µg/mL) | log10cfu [1]: 3.5; Cmax [19]: 8.3 µM; AUC [20]: 91.1 µM·h; Activity [21]: Active
7 | Cc1ccc([C@H]2C[C@@H](C(F)(F)F)n3ncc(C(=O)NCc4ccc(F)cc4)c3N2)nc1 | inactive | 1.9 | 100 | 2.1 | 3.6 | 1.3 | 25 | 38 | 3.4 | 71.8 | Not Active | Not Active | Not Active | Not Active | Not Active | 0.039 | 0.042 | 9 (≈ 3.9 µg/mL) | 4.4 | 0.44 (≈ 0.191 µg/mL) | Cmax [6]: 11.8 µM; AUC [7]: 91.9 µM·h
8 | COc1ccc(CNC(=O)c2cnn3c2N[C@@H](c2ccc(C)cc2)C[C@H]3C(F)(F)F)cn1 | – | – | – | – | – | – | – | – | – | – | – | – | – | – | – | < 0.01 | < 0.01 | < 4 | 5.1 | 0.47 (≈ 0.209 µg/mL) | –
9 | Cc1ccc([C@H]2C[C@@H](C(F)(F)F)n3ncc(C(=O)NCc4ccc(F)cc4)c3N2)o1 | – | – | – | – | – | – | – | – | – | – | – | – | – | – | – | < 0.01 | < 0.01 | < 4 | 5.5 | 0.13 (≈ 0.0549 µg/mL) | –
10 | Cc1ccc([C@H]2C[C@@H](C(F)(F)F)n3ncc(C(=O)NCc4ccc(F)cn4)c3N2)nc1 | – | – | – | – | – | – | – | – | – | – | – | – | – | – | – | 0.181 | 0.128 | 347 (≈ 151 µg/mL) | 3.2 | 52.2 (≈ 22.7 µg/mL) | –
11 | Cc1ccc([C@H]2C[C@@H](C(F)F)n3ncc(C(=O)NCc4ccc(F)cc4)c3N2)nc1 | inactive | 1.7 | 53 | 2.8 | 5.5 | 1.8 | 16.8 | 24 | 2.6 | 85.6 | Not Active | Not Active | Not Active | Not Active | Not Active | 0.043 | 0.052 | 212 (≈ 88.1 µg/mL) | 4.6 | 0.6 (≈ 0.249 µg/mL) | Cmax [6]: 15.2 µM; AUC [7]: 77.7 µM·h
12 | CC[C@@H](CO)NCCN[C@@H](CC)CO | Active | – | – | – | – | – | – | – | – | – | – | – | – | – | – | – | – | – | – | – | –
